Laboratory results from patent US12213483B1, “Herbicidal compositions comprising trifludimoxazin” (BASF SE, priority 2024, dated 2025).
Where “and” joins values, the source holds several entries; their conditions need not be identical. Equal entries are not always repeated.

Columns and labels:
Type in all cases: in vivo
[1] = tested on: Sorghum bicolor (SORVU); experiment: Post-emergence application in field trials, SORVU; conditions: 22 DAT, water volume 200 l/ha, growth stage 21-31, volunteer crop, non PPO-i herbicide tolerant
Protocol: (§1) In the examples below, using the method of S. R. Colby (1967) “Calculating synergistic and antagonistic responses of herbicide combinations”, Weeds 15, p. 22ff., the value E, which is expected if the activity of the individual active compounds is only additive, was calculated: E=X+Y−(X·Y/100) • where • X=percent activity using active herbicide A at an application rate a; • Y=percent activity using active trifludimoxazin at an application rate b; • E=expected activity (in %) by A+B at application rates a+b.
(§2) If the value found experimentally is higher than the value E calculated according to Colby, a synergistic effect is present.
(§3) On field test sites, natural weed infestation or seeded weeds were treated post-emergence of the weeds.
(§4) In the field trials, the weedy plants were treated as indicated below.
(§5) Herbicide A-1 (342 g/I), trifludimoxazin (500 g/I) and saflufenacil (342 g/I) were, together with addition of 1% MSO (methylated seed oil) as adjuvant (unless indicated otherwise), formulated in water as distribution medium as indicated and sprayed with commercial flat fan nozzles.
(§6) In the following experiments, the herbicidal activity for the individual herbicidal compositions (solo and mixture applications) was assessed at the indicated days after treatment (DAT). […]

[2] = tested on: Kochia scoparia (KCHSC); experiment: Post-emergence application in greenhouse trials, KCHSC
Protocol: as §1, §2
(§7) The culture containers used were plastic pots containing loamy sand with approximately 3.0% of humus as substrate. The seeds of the test plants were sown separately for each species.
(§8) For the post-emergence treatment, the test plants were grown to a plant height of from 3 to 15 cm, depending on the plant habit, and only then treated with the active compounds which had been suspended or emulsified in water. To this end, the test plants were either sown directly, and grown in the same containers, or they were first grown separately as seedlings and transplanted into the test containers a few days prior to treatment.
(§9) Depending on the species, the plants were kept at 10-25° C. and 20-35° C., respectively.
(§10) The test period extended over 2 to 4 weeks. During this time, the plants were tended and their response to the individual treatments was evaluated.
(§11) Evaluation was carried out using a scale from 0 to 100. 100 means no emergence of the plants, or complete destruction of at least the above-ground parts, and 0 means no damage or normal course of growth. A good herbicidal activity is given at values of at least 70, and very good herbicidal activity is given at values of at least 85.
(§12) In the greenhouse trials, unless indicated otherwise, herbicide A, trifludimoxazin and saflufenacil were formulated (50 g/I) and applied with addition of 1% MSO (methylated seed oil) as adjuvant. The solvent used was water (200 I/ha).

[3] = tested on: Avena fatua (AVEFA); experiment: Post-emergence application in greenhouse trials, AVEFA
Protocol: as §1, §2, §7, §8, §9, §10, §11, §12

[4] = tested on: Avena fatua (AVEFA); experiment: Post-emergence application in field trials, AVEFA; conditions: 29 DAT; water volume 100 l/ha; pre plant burndown; growth stage 14-23; height 24-40 cm; 18 g ai/ha
Protocol: as §1, §2, §3, §4, §5
(§13) In the following experiments, the herbicidal activity for the individual herbicidal compositions (solo and mixture applications) was assessed at the indicated days after treatment (DAT). The assessments for the damage on undesired weeds caused by the composition was carried out using a scale from 0 to 100%, compared to the untreated control plants. Here, 0 means no damage and 100 means complete destruction of the plants.
(§14) Herbicide A-1 (100 g/l) and trifludimoxazin (500 g/l) were, together with addition of 1% MSO (methylated seed oil) as adjuvant (unless indicated otherwise), formulated in water as distribution medium as indicated and sprayed with commercial flat fan nozzles.

[5] = tested on: Abutilon theophrasti (ABUTH); experiment: Post-emergence application in greenhouse trials, ABUTH
Protocol: as §1, §2, §7, §8, §9, §10, §11, §12

[6] = tested on: Brachiaria decumbens (BRADC); experiment: Post-emergence application in greenhouse trials, BRADC; conditions: GS 13
Protocol: as §1, §2, §7, §8, §9, §10, §11, §12

[7] = tested on: Digitaria sanguinales (DIGSA); experiment: Post-emergence application in greenhouse trials, DIGSA
Protocol: as §1, §2, §7, §8, §9, §10, §11, §12

[8] = tested on: Sinapis alba (SINAL); experiment: Post-emergence application in field trials, SINAL; conditions: 7 DAT; water volume 200 l/ha; growth stage 14-21; height 11-12 cm; 12.5 g ai/ha
Protocol: as §1, §2, §3, §4, §5, §6

[9] = tested on: Cyperus iria (CYPIR); experiment: Post-emergence application in field trials, CYPIR; conditions: 3 DAT, height 3-5 cm
Protocol: as §1, §2, §3, §4, §5, §13, §14

[10] = 20 DAT, growth stage 33, 0.3 g ai/ha
[11] = 20 DAT, growth stage 33, 0.5 g ai/ha
[12] = 20 DAT, growth stage 33, 0.2 g ai/ha
[13] = water volume 200 l/ha, growth stage 13-14, 25 g ai/ha

## CCOC(=O)COc1ccccc1Oc1nc(-n2c(=O)cc(C(F)(F)F)n(C)c2=O)c(F)cc1Cl [A-1, ethyl 2-[2-[[3-chloro-5-fluoro-6-[3-methyl-2,6-dioxo-4-(trifluoromethyl)pyrimidin-1-yl]-2-pyridyl]oxy]phenoxy]acetate]
[1]; 20 g ai/ha
  % Herbicidal activity: 93%
[2]; 6 DAT, GS 33, A-1 0.4 g ai/ha
  % Herbicidal activity: 55%
[2]; 6 DAT, GS 33, A-1 0.5 g ai/ha
  % Herbicidal activity: 65%
[2]; 6 DAT, GS 33, A-1 0.9 g ai/ha
  % Herbicidal activity: 90%
[2]; 20 DAT, GS 33, A-1 0.2 g ai/ha
  % Herbicidal activity: 15%
[2]; 20 DAT, GS 33, A-1 0.3 g ai/ha
  % Herbicidal activity: 55%
[2]; 20 DAT, GS 33, A-1 0.5 g ai/ha
  % Herbicidal activity: 55%
[2]; 20 DAT, GS 33, A-1 0.9 g ai/ha
  % Herbicidal activity: 90%
[2]; [10]
  % Herbicidal activity: 55%
[2]; [11]
  % Herbicidal activity: 55%
[3]; 7 DAT, GS 13, A-1 1 g ai/ha
  % Herbicidal activity: 65%
[3]; 20 DAT, B-1 formulated as 500 g/l, GS 12, A-1 2 g ai/ha
  % Herbicidal activity: 98%
[3]; 20 DAT, GS 13, A-1 0.3 g ai/ha
  % Herbicidal activity: 15%
[3]; 20 DAT, growth stage 13, 0.3 g ai/ha
  % Herbicidal activity: 15%
[4]
  % Herbicidal activity: 80%
[5]; 6 DAT, GS 33, A-1 0.2 g ai/ha
  % Herbicidal activity: 65%
[5]; 6 DAT, GS 33, A-1 0.3 g ai/ha
  % Herbicidal activity: 65%
[5]; 6 DAT, GS 33, A-1 0.8 g ai/ha
  % Herbicidal activity: 85%
[5]; 20 DAT, GS 33, A-1 0.2 g ai/ha
  % Herbicidal activity: 15%
[5]; 20 DAT, GS 33, A-1 0.3 g ai/ha
  % Herbicidal activity: 15%
[5]; [12]
  % Herbicidal activity: 15%
[6]; 7 DAT, B-1 formulated as 500 g/l, A-1 2 g ai/ha
  % Herbicidal activity: 90%
[6]; 7 DAT, A-1 0.4 g ai/ha
  % Herbicidal activity: 40%
[6]; 7 DAT, A-1 0.8 g ai/ha
  % Herbicidal activity: 50%
[6]; 7 DAT, A-1 0.9 g ai/ha
  % Herbicidal activity: 60%
[6]; 7 DAT, A-1 1 g ai/ha
  % Herbicidal activity: 60%
[6]; 20 DAT, B-1 formulated as 500 g/l, A-1 2 g ai/ha
  % Herbicidal activity: 90%
[6]; 20 DAT, A-1 0.9 g ai/ha
  % Herbicidal activity: 55%
[7]; 7 DAT, GS 12, A-1 0.3 g ai/ha
  % Herbicidal activity: 45%
[7]; 7 DAT, GS 12, A-1 0.4 g ai/ha
  % Herbicidal activity: 50%
[7]; 7 DAT, GS 12, A-1 0.8 g ai/ha
  % Herbicidal activity: 65%
[7]; 7 DAT, GS 12, A-1 0.9 g ai/ha
  % Herbicidal activity: 90%
[7]; 19 DAT, B-1 formulated as 500 g/l, GS 13, A-1 1 g ai/ha
  % Herbicidal activity: 95%
[8]
  % Herbicidal activity: 55%
[9]; [13]
  % Herbicidal activity: 23%
[9]; water volume 300 l/ha, burndown in fruit plantation (citrus), GS 13-14, A-1 25 g ai/ha
  % Herbicidal activity: 23%

## C#CCN1C(=O)C(F)(F)Oc2cc(F)c(-n3c(=O)n(C)c(=S)n(C)c3=O)cc21 [B-1, trifludimoxazin]
[1]; 12.5 g ai/ha
  % Herbicidal activity: 20%
[2]; 6 DAT, GS 33, B-1 0.3 g ai/ha
  % Herbicidal activity: 45%
[2]; 6 DAT, GS 33, B-1 0.5 g ai/ha
  % Herbicidal activity: 80%
[2]; 6 DAT, GS 33, B-1 0.8 g ai/ha
  % Herbicidal activity: 85%
[2]; 20 DAT, GS 33, B-1 0.3 g ai/ha
  % Herbicidal activity: 35%
[2]; 20 DAT, GS 33, B-1 0.9 g ai/ha
  % Herbicidal activity: 80%
[2]; 20 DAT, GS 33, B-1 1 g ai/ha
  % Herbicidal activity: 98%
[2]; [10]
  % Herbicidal activity: 35%
[2]; [11]
  % Herbicidal activity: 75%
[3]; 7 DAT, GS 13, B-1 0.2 g ai/ha
  % Herbicidal activity: 20%
[3]; 20 DAT, B-1 formulated as 500 g/l, GS 12, B-1 1 g ai/ha
  % Herbicidal activity: 15%
[3]; 20 DAT, growth stage 13, 0.9 g ai/ha
  % Herbicidal activity: 20%
[4]
  % Herbicidal activity: 0%
[5]; 6 DAT, GS 33, B-1 0.2 g ai/ha
  % Herbicidal activity: 20%
[5]; 6 DAT, GS 33, B-1 0.3 g ai/ha
  % Herbicidal activity: 20%
[5]; 6 DAT, GS 33, B-1 0.4 g ai/ha
  % Herbicidal activity: 35%
[5]; 20 DAT, GS 33, B-1 0.3 g ai/ha
  % Herbicidal activity: 0%
[5]; [12]
  % Herbicidal activity: 0%
[6]; 7 DAT, B-1 formulated as 500 g/l, B-1 1 g ai/ha
  % Herbicidal activity: 15%
[6]; 7 DAT, B-1 formulated as 500 g/l, B-1 2 g ai/ha
  % Herbicidal activity: 15%
[6]; 7 DAT, B-1 0.2 g ai/ha
  % Herbicidal activity: 10%
[6]; 7 DAT, B-1 0.3 g ai/ha
  % Herbicidal activity: 10%
[6]; 7 DAT, B-1 0.4 g ai/ha
  % Herbicidal activity: 10%
[6]; 7 DAT, B-1 0.8 g ai/ha
  % Herbicidal activity: 45%
[6]; 20 DAT, B-1 formulated as 500 g/l, B-1 2 g ai/ha
  % Herbicidal activity: 10%
[6]; 20 DAT, B-1 0.3 g ai/ha
  % Herbicidal activity: 5%
[7]; 7 DAT, GS 12, B-1 0.3 g ai/ha
  % Herbicidal activity: 15% and 10%
[7]; 7 DAT, GS 12, B-1 0.4 g ai/ha
  % Herbicidal activity: 15%
[7]; 7 DAT, GS 12, B-1 0.8 g ai/ha
  % Herbicidal activity: 45%
[7]; 19 DAT, B-1 formulated as 500 g/l, GS 13, B-1 2 g ai/ha
  % Herbicidal activity: 40%
[8]
  % Herbicidal activity: 82%
[9]; [13]
  % Herbicidal activity: 63%
[9]; water volume 300 l/ha, burndown in fruit plantation (citrus), GS 13-14, B-1 25 g ai/ha
  % Herbicidal activity: 65%
